Measurements as given in patent US12427157B2, “Methods for treatment of diseases involving acidic or hypoxic diseased tissues” (Cybrexa 1, Inc., priority 2018, dated 2025).
Residues, ends and D or L forms follow the SMILES beside them. *: point of attachment. X24 = CN(Cc1ccc(-c2[nH]c3cc(F)cc4c3c2CCNC4=O)cc1)C(=O)O[C@H](CS*)c1ccccc1; X21 = NC(=O)c1cccc2cn(-c3ccc([C@@H]4CCCN(C(=O)OCCS*)C4)cc3)nc12; X22 = C[C@]1(c2nc3c(C(N)=O)cccc3[nH]2)CCCN1C(=O)OCCS*; X2 = NC(=O)c1cccc2[nH]c(-c3ccc(COC(=O)OCCS*)cc3)nc12

Target: PARP (Homo sapiens, UniProt P09874)
Test: Enzymatic Assay 2: HT Universal Chemiluminescent PARP Assay of cleaved compounds;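 note: PARP reaction with activated DNA run 1 h at room temperature, product detected via streptavidin-HRP and luminescence endpoint reading on a plate reader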
Settings: read-out: IC50 Enzymatic Assay 2; Examples cleaved per Example A (crude cleavage solution); R^8H starting materials as such
Experimental: An equal volume of 1×PARP cocktail containing activated DNA was added to each well and the reaction was incubated for one hour at room temperature. The wells were washed twice with 1×PBS+0.1% Triton X-100 and twice with PBS. 50 ul/well of diluted streptavidin-HRP was added and the wells were incubated for one hour at room temperature. The wells were washed twice with 1×PBS+0.1% Triton X-100 and washed twice with PBS. The liquid was 5 removed, 100 ul/well 1:1 PeroxyGlow A/PeroxyGlow B was added and the chemiluminescent readings were measured on a BioTek Cytation 5 plate reader using the luminescence fiber endpoint.

Chain of PARP (P09874 whole entry): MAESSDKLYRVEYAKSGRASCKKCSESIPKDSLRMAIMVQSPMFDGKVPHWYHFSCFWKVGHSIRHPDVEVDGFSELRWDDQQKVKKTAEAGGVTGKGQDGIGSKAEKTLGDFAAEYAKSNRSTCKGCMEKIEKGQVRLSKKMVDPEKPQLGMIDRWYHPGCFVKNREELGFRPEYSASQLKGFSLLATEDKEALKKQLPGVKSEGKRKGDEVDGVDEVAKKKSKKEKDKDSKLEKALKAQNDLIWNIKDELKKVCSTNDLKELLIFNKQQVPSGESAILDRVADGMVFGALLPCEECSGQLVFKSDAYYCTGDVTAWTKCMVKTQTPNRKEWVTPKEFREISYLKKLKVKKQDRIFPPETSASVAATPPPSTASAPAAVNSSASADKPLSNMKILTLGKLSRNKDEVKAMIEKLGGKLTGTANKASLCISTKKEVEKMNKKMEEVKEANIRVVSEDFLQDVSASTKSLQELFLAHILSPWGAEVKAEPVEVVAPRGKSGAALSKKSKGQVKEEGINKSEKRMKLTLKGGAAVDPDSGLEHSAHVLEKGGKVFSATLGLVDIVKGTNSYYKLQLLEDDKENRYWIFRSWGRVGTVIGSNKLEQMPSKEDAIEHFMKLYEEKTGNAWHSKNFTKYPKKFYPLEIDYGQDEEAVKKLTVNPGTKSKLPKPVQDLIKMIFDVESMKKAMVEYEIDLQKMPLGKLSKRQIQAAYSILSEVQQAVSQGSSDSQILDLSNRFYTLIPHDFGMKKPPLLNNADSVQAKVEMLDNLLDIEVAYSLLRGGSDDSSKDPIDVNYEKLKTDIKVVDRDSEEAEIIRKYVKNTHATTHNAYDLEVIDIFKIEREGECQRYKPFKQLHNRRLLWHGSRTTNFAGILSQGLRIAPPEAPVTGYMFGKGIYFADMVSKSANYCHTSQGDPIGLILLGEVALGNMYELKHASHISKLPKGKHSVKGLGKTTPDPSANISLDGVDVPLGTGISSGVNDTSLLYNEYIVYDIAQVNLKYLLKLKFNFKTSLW

| Compound | IC50 |
| --- | --- |
| CC[C@H](C)[C@H](NC(=O)[C@@H]1CCCN1C(=O)[C@H](CC(N)=O)NC(=O)[C@H](CCC(N)=O)NC(=O)[C@H](CCC(=O)O)NC(=O)[C@H](C)N)C(=O)N[C@@H](Cc1ccc(O)cc1)C(=O)N[C@@H](Cc1c[nH]c2ccccc12)C(=O)N[C@@H](C)C(=O)N[C@@H](CCCNC(=N)N)C(=O)N[C@@H](Cc1ccc(O)cc1)C(=O)N[C@@H](C)C(=O)N[C@@H](CC(=O)O)C(=O)N[C@@H](Cc1c[nH]c2ccccc12)C(=O)N[C@@H](CC(C)C)C(=O)N[C@@H](Cc1ccccc1)C(=O)N[C@H](C(=O)N[C@H](C(=O)N1CCC[C@H]1C(=O)N[C@@H](CC(C)C)C(=O)N[C@@H](CC(C)C)C(=O)N[C@@H](CC(C)C)C(=O)N[C@@H](CC(C)C)C(=O)N[C@@H](CC(=O)O)C(=O)N[C@@H](CC(C)C)C(=O)N[C@@H](C)C(=O)N[C@@H](CC(C)C)C(=O)N[C@@H](CC(C)C)C(=O)N[C@H](C(=O)N[C@@H](CC(=O)O)C(=O)N[C@@H](C)C(=O)N[C@@H](CC(=O)O)C(=O)N[C@@H](CCC(=O)O)C(=O)N[C@@H](CSSCCOC(=O)N1CCC[C@@H](c2ccc(-n3cc4cccc(C(N)=O)c4n3)cc2)C1)C(=O)NCC(=O)O)C(C)C)[C@@H](C)O)[C@@H](C)O [Example 49] (H-AEQNPIYWARYADWLFTTPLLLLDLALLVDADEC(X21)G-OH; N-terminus and C-terminus assumed) | 26 nM |
| CC[C@H](C)[C@H](NC(=O)[C@@H]1CCCN1C(=O)[C@H](CC(N)=O)NC(=O)[C@H](CCC(N)=O)NC(=O)[C@H](CCC(=O)O)NC(=O)[C@H](C)N)C(=O)N[C@@H](Cc1ccc(O)cc1)C(=O)N[C@@H](Cc1c[nH]c2ccccc12)C(=O)N[C@@H](C)C(=O)N[C@@H](CCCNC(=N)N)C(=O)N[C@@H](Cc1ccc(O)cc1)C(=O)N[C@@H](C)C(=O)N[C@@H](CC(=O)O)C(=O)N[C@@H](Cc1c[nH]c2ccccc12)C(=O)N[C@@H](CC(C)C)C(=O)N[C@@H](Cc1ccccc1)C(=O)N[C@H](C(=O)N[C@H](C(=O)N1CCC[C@H]1C(=O)N[C@@H](CC(C)C)C(=O)N[C@@H](CC(C)C)C(=O)N[C@@H](CC(C)C)C(=O)N[C@@H](CC(C)C)C(=O)N[C@@H](CC(=O)O)C(=O)N[C@@H](CC(C)C)C(=O)N[C@@H](C)C(=O)N[C@@H](CC(C)C)C(=O)N[C@@H](CC(C)C)C(=O)N[C@H](C(=O)N[C@@H](CC(=O)O)C(=O)N[C@@H](C)C(=O)N[C@@H](CC(=O)O)C(=O)N[C@@H](CCC(=O)O)C(=O)N[C@@H](CSSCCOC(=O)N1CCC[C@]1(C)c1nc2c(C(N)=O)cccc2[nH]1)C(=O)NCC(=O)O)C(C)C)[C@@H](C)O)[C@@H](C)O [Example 53] (H-AEQNPIYWARYADWLFTTPLLLLDLALLVDADEC(X22)G-OH; N-terminus and C-terminus assumed) | 1 nM |
| CC(C)C[C@H](NC(=O)[C@H](Cc1ccc(O)cc1)NC(=O)[C@H](C)NC(=O)[C@H](CCCNC(=N)N)NC(=O)[C@H](Cc1c[nH]c2ccccc12)NC(=O)[C@@H]1CCCN1C(=O)[C@H](CC(N)=O)NC(=O)[C@H](CCC(N)=O)NC(=O)[C@H](CC(=O)O)NC(=O)[C@H](CC(=O)O)NC(=O)[C@H](C)N)C(=O)N[C@@H](CC(=O)O)C(=O)N[C@@H](CC(C)C)C(=O)N[C@@H](CC(C)C)C(=O)N[C@@H](Cc1ccccc1)C(=O)N1CCC[C@H]1C(=O)N[C@H](C(=O)N[C@@H](CC(=O)O)C(=O)N[C@H](C(=O)N[C@@H](CC(C)C)C(=O)N[C@@H](CC(C)C)C(=O)N[C@@H](CC(C)C)C(=O)N[C@@H](CC(=O)O)C(=O)N[C@@H](CC(C)C)C(=O)N[C@@H](CC(C)C)C(=O)N[C@@H](Cc1c[nH]c2ccccc12)C(=O)N[C@@H](CC(=O)O)C(=O)N[C@@H](C)C(=O)N[C@@H](CC(=O)O)C(=O)N[C@@H](CCC(=O)O)C(=O)N[C@@H](CSSCCOC(=O)N1CCC[C@]1(C)c1nc2c(C(N)=O)cccc2[nH]1)C(=O)NCC(=O)O)[C@@H](C)O)[C@@H](C)O [Example 11] | 1.08 nM |
| CC[C@H](C)[C@H](NC(=O)[C@@H]1CCCN1C(=O)[C@H](CC(N)=O)NC(=O)[C@H](CCC(N)=O)NC(=O)[C@H](CCC(=O)O)NC(=O)[C@H](C)N)C(=O)N[C@@H](Cc1ccc(O)cc1)C(=O)N[C@@H](Cc1c[nH]c2ccccc12)C(=O)N[C@@H](C)C(=O)N[C@@H](CCCNC(=N)N)C(=O)N[C@@H](Cc1ccc(O)cc1)C(=O)N[C@@H](C)C(=O)N[C@@H](CC(=O)O)C(=O)N[C@@H](Cc1c[nH]c2ccccc12)C(=O)N[C@@H](CC(C)C)C(=O)N[C@@H](Cc1ccccc1)C(=O)N[C@H](C(=O)N[C@H](C(=O)N1CCC[C@H]1C(=O)N[C@@H](CC(C)C)C(=O)N[C@@H](CC(C)C)C(=O)N[C@@H](CC(C)C)C(=O)N[C@@H](CC(C)C)C(=O)N[C@@H](CC(=O)O)C(=O)N[C@@H](CC(C)C)C(=O)N[C@@H](C)C(=O)N[C@@H](CC(C)C)C(=O)N[C@@H](CC(C)C)C(=O)N[C@H](C(=O)N[C@@H](CC(=O)O)C(=O)N[C@@H](C)C(=O)N[C@@H](CC(=O)O)C(=O)N[C@@H](CCC(=O)O)C(=O)N[C@@H](CSSCCOC(=O)OCc1ccc(-c2nc3c(C(N)=O)cccc3[nH]2)cc1)C(=O)NCC(=O)O)C(C)C)[C@@H](C)O)[C@@H](C)O [Example 2] (H-AEQNPIYWARYADWLFTTPLLLLDLALLVDADEC(X2)G-OH; N-terminus and C-terminus assumed) | 9.52 nM |
| CC(C)C[C@H](NC(=O)[C@H](Cc1ccc(O)cc1)NC(=O)[C@H](C)NC(=O)[C@H](CCCNC(=N)N)NC(=O)[C@H](Cc1c[nH]c2ccccc12)NC(=O)[C@@H]1CCCN1C(=O)[C@H](CC(N)=O)NC(=O)[C@H](CCC(N)=O)NC(=O)[C@H](CC(=O)O)NC(=O)[C@H](CC(=O)O)NC(=O)[C@H](C)N)C(=O)N[C@@H](CC(=O)O)C(=O)N[C@@H](CC(C)C)C(=O)N[C@@H](CC(C)C)C(=O)N[C@@H](Cc1ccccc1)C(=O)N1CCC[C@H]1C(=O)N[C@H](C(=O)N[C@@H](CC(=O)O)C(=O)N[C@H](C(=O)N[C@@H](CC(C)C)C(=O)N[C@@H](CC(C)C)C(=O)N[C@@H](CC(C)C)C(=O)N[C@@H](CC(=O)O)C(=O)N[C@@H](CC(C)C)C(=O)N[C@@H](CC(C)C)C(=O)N[C@@H](Cc1c[nH]c2ccccc12)C(=O)N[C@@H](CC(=O)O)C(=O)N[C@@H](C)C(=O)N[C@@H](CC(=O)O)C(=O)N[C@@H](CCC(=O)O)C(=O)N[C@@H](CSS[C@@H](C)COC(=O)N1CCC[C@]1(C)c1nc2c(C(N)=O)cccc2[nH]1)C(=O)NCC(=O)O)[C@@H](C)O)[C@@H](C)O [Example 52] | 1.1 nM |
| CC(C)C[C@H](NC(=O)[C@H](Cc1ccc(O)cc1)NC(=O)[C@H](C)NC(=O)[C@H](CCCNC(=N)N)NC(=O)[C@H](Cc1c[nH]c2ccccc12)NC(=O)[C@@H]1CCCN1C(=O)[C@H](CC(N)=O)NC(=O)[C@H](CCC(N)=O)NC(=O)[C@H](CC(=O)O)NC(=O)[C@H](CC(=O)O)NC(=O)[C@H](C)N)C(=O)N[C@@H](CC(=O)O)C(=O)N[C@@H](CC(C)C)C(=O)N[C@@H](CC(C)C)C(=O)N[C@@H](Cc1ccccc1)C(=O)N1CCC[C@H]1C(=O)N[C@H](C(=O)N[C@@H](CC(=O)O)C(=O)N[C@H](C(=O)N[C@@H](CC(C)C)C(=O)N[C@@H](CC(C)C)C(=O)N[C@@H](CC(C)C)C(=O)N[C@@H](CC(=O)O)C(=O)N[C@@H](CC(C)C)C(=O)N[C@@H](CC(C)C)C(=O)N[C@@H](Cc1c[nH]c2ccccc12)C(=O)N[C@@H](CSSc1ccc(COC(=O)N(C)Cc2ccc(-c3[nH]c4cc(F)cc5c4c3CCNC5=O)cc2)cc1)C(=O)NCC(=O)O)[C@@H](C)O)[C@@H](C)O [Example 36] | 2.2 nM |
| CC(C)C[C@H](NC(=O)[C@H](Cc1ccc(O)cc1)NC(=O)[C@H](C)NC(=O)[C@H](CCCNC(=N)N)NC(=O)[C@H](Cc1c[nH]c2ccccc12)NC(=O)[C@@H]1CCCN1C(=O)[C@H](CC(N)=O)NC(=O)[C@H](CCC(N)=O)NC(=O)[C@H](CC(=O)O)NC(=O)[C@H](CC(=O)O)NC(=O)[C@H](C)N)C(=O)N[C@@H](CC(=O)O)C(=O)N[C@@H](CC(C)C)C(=O)N[C@@H](CC(C)C)C(=O)N[C@@H](Cc1ccccc1)C(=O)N1CCC[C@H]1C(=O)N[C@H](C(=O)N[C@@H](CC(=O)O)C(=O)N[C@H](C(=O)N[C@@H](CC(C)C)C(=O)N[C@@H](CC(C)C)C(=O)N[C@@H](CC(C)C)C(=O)N[C@@H](CC(=O)O)C(=O)N[C@@H](CC(C)C)C(=O)N[C@@H](CC(C)C)C(=O)N[C@@H](Cc1c[nH]c2ccccc12)C(=O)N[C@@H](CC(=O)O)C(=O)N[C@@H](C)C(=O)N[C@@H](CC(=O)O)C(=O)N[C@@H](CCC(=O)O)C(=O)N[C@@H](CSSCCOC(=O)N1CCC[C@@H](c2ccc(-n3cc4cccc(C(N)=O)c4n3)cc2)C1)C(=O)NCC(=O)O)[C@@H](C)O)[C@@H](C)O [Example 10] | 64.9 nM |
| CC[C@H](C)[C@H](NC(=O)[C@@H]1CCCN1C(=O)[C@H](CC(N)=O)NC(=O)[C@H](CCC(N)=O)NC(=O)[C@H](CCC(=O)O)NC(=O)[C@H](C)N)C(=O)N[C@@H](Cc1ccc(O)cc1)C(=O)N[C@@H](Cc1c[nH]c2ccccc12)C(=O)N[C@@H](C)C(=O)N[C@@H](CCCNC(=N)N)C(=O)N[C@@H](Cc1ccc(O)cc1)C(=O)N[C@@H](C)C(=O)N[C@@H](CC(=O)O)C(=O)N[C@@H](Cc1c[nH]c2ccccc12)C(=O)N[C@@H](CC(C)C)C(=O)N[C@@H](Cc1ccccc1)C(=O)N[C@H](C(=O)N[C@H](C(=O)N1CCC[C@H]1C(=O)N[C@@H](CC(C)C)C(=O)N[C@@H](CC(C)C)C(=O)N[C@@H](CC(C)C)C(=O)N[C@@H](CC(C)C)C(=O)N[C@@H](CC(=O)O)C(=O)N[C@@H](CC(C)C)C(=O)N[C@@H](C)C(=O)N[C@@H](CC(C)C)C(=O)N[C@@H](CC(C)C)C(=O)N[C@H](C(=O)N[C@@H](CC(=O)O)C(=O)N[C@@H](C)C(=O)N[C@@H](CC(=O)O)C(=O)N[C@@H](CCC(=O)O)C(=O)N[C@@H](CSSC[C@@H](OC(=O)N(C)Cc1ccc(-c2[nH]c3cc(F)cc4c3c2CCNC4=O)cc1)c1ccccc1)C(=O)NCC(=O)O)C(C)C)[C@@H](C)O)[C@@H](C)O [Example 25] (H-AEQNPIYWARYADWLFTTPLLLLDLALLVDADEC(X24)G-OH; N-terminus and C-terminus assumed) | 3.4 nM |
